Where a name gives a salt, the structure may show the parent alone.

The experiment addresses T1, human GR (glucocorticoid receptor) (Homo sapiens, UniProt P04150).
T1 construct: expressed in transfected cells; host or cells: 293 cells
T1 sequence (P04150 1-777): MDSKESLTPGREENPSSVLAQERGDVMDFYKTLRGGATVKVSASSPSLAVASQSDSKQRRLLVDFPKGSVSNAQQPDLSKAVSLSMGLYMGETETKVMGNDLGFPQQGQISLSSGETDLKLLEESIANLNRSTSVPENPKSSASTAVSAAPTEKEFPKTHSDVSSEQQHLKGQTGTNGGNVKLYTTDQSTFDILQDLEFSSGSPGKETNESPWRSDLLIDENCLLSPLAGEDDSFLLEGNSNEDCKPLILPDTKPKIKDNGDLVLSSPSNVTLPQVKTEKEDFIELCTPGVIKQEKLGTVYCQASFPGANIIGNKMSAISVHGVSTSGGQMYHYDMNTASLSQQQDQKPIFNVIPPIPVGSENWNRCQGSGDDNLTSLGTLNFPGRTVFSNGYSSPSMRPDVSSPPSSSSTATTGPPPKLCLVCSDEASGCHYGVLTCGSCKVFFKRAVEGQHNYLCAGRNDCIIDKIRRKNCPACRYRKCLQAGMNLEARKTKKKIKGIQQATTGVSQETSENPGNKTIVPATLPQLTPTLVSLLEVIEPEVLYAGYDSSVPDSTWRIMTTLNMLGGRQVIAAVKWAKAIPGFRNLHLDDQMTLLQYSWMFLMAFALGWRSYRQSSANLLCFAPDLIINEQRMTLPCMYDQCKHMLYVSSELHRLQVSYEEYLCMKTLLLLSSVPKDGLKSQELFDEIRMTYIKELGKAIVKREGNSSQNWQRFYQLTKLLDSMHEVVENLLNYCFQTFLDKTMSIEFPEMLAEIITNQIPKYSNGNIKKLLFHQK
Description: Alternative Binding Assay Protocol (Method 2), GR. The settings on record: 293-GR lysate, 3H-dexamethasone. Here is the method: Cell lysates from 293 cells overexpressing human GR (glucocorticoid receptor), AR (androgen receptor), MR (mineralocorticoid receptor) or PR (progesterone receptor) are used for competition binding assays to determine Ki values for test compounds. Briefly, competition binding assays are run in a buffer containing 20 mM Hepes, pH 7.6, 0.2 mM EDTA, 75 mM NaCl, 1.5 mM MgCl2, 20% glycerol, 20 mM sodium molybdate, 0.2 mM DTT, 20 ug/ml aprotinin and 20 ug/ml leupeptin, using either 0.3 nM ^3H-dexamethasone for GR binding, 0.36 nM ^3H-methyltrienolone for AR binding, 0.25 nM ^3H-aldosterone for MR binding, or 0.29 nM ^3H-methyltrienolone for PR binding, and either 20 ug 293-GR lysate, 22 ug 293-AR lysate, 20 ug 293-MR lysate or 40 ug 293-PR lysate per well. Competing compounds are added at various concentrations in half-log increments. Non-specific binding is determined in the presence of 500 nM dexamethasone for GR binding, 500 nM aldosterone for MR binding, or 500 nM methyltrienolone for AR and PR binding. The binding reaction (140 μl) is incubated for overnight at 4° C., then 70 μl of cold charcoal-dextran buffer (containing per 50 ml of assay buffer, 0.75 g of charcoal and 0.25 g of dextran) is added to each reaction. Plates are mixed 8 minutes on an orbital shaker at 4° C. Plates are then centrifuged at 3,000 rpm at 4° C. for 10 minutes. An aliquot of 120 μl of the mix is transferred to another 96-well plate and 175 μl of Wallac Optiphase “Hisafe 3” scintillation fluid is added to each well. Plates are sealed and shaken vigorously on an orbital shaker. After an incubation of 2 hrs, plates are read in a Wallac Microbeta counter. The data is used to calculate an IC50 and % Inhibition at 10 μM. The Kd for ^3H-dexamethasone for GR binding, ^3H-methyltrienolone for AR binding, ^3H-aldosterone for MR binding, or ^3H-methyltrienolone for PR binding, is determined by saturation binding. The IC50 values for compounds are converted to Ki using Cheng-Prusoff equation and the Kd determined by saturation binding assay.
As a reminder, the Ki is the equilibrium dissociation constant of an inhibitor or competing ligand from its target. Low values mean tighter binding, high ones weaker binding. Compound `CC(C)(CN1CCOCC1)n1c(=O)[nH]c2cc(/C=C3\c4ccccc4COc4cc(F)ccc43)ccc21` [Example 1, 1-(1,1-Dimethyl-2-morpholin-4-yl-ethyl)-5-(3-fluoro-6H-dibenzo[b,e]oxepin-11-ylidenemethyl)-1,3-dihydro-benzoimidazol-2-one, E isomer] gave a Ki of less than 1000 nM.

In turn, `CN1CCC(n2c(=O)[nH]c3cc(/C=C4/c5ccc(F)cc5OCc5c(F)cccc54)ccc32)CC1` [Example 2, 5-(3,7-Difluoro-6H-dibenzo[b,e]oxepine-11-ylidenemethyl)-1-(1-methyl-piperidin-4-yl)-1,3-dihydro-benzoimidazol-2-one, E-isomer] yielded a Ki of less than 1000 nM.

Consider `CN1CCC(n2c(=O)[nH]c3cc(/C=C4\c5ccccc5COc5cc(F)ccc54)ccc32)CC1` [Example 3, 5-(3-Fluoro-6H-dibenzo[b,e]oxepin-11-ylidenemethyl)-1-(1-methyl-piperidin-4-yl)-1,3-dihydro-benzoimidazol-2-one, E isomer], for which the Ki was less than 500 nM.

In turn, `CN1CCC(n2c(=O)[nH]c3cc(/C=C4\c5ccc(F)cc5COc5cc(F)ccc54)ccc32)CC1` [Example 4, 5-(3,8-Difluoro-6H-dibenzo[b,e]oxepin-11-ylidenemethyl)-1-(1-methyl-piperidin-4-yl) -1,3-dihydro-benzoimidazol-2-one, E isomer] showed a Ki of less than 1000 nM.

In the case of `CCN1CC[C@@H](n2c(=O)[nH]c3cc(/C=C4\c5ccc(F)cc5COc5cc(F)ccc54)ccc32)C1` [Example 5, 5-(3,8-Difluoro-6H-dibenzo[b,e]oxepin-11-ylidenemethyl)-1-(1-ethyl-pyrrolidin-3-yl) -1,3-dihydro-benzoimidazol-2-one, HOAc salt, E isomer, chiral], the inhibitory constant (Ki) is less than 500 nM.

On to `CN1CCN(CCCn2c(=O)[nH]c3cc(/C=C4\c5ccccc5COc5cc(F)ccc54)ccc32)CC1` [Example 7], for which the Ki was less than 500 nM.

In the case of `CN1CCN(CCn2c(=O)[nH]c3cc(/C=C4\c5ccccc5COc5cc(F)ccc54)ccc32)CC1` [Example 8], the inhibitory constant (Ki) was less than 500 nM.

Turning to `O=c1[nH]c2cc(/C=C3\c4ccccc4COc4cc(F)ccc43)ccc2n1[C@H]1CCNC1` [Example 9], the Ki is less than 500 nM.

The compound `C[C@H](CN1CCOCC1)n1c(=O)[nH]c2cc(/C=C3\c4ccccc4COc4cc(F)ccc43)ccc21` [Example 10] came in with an inhibition constant (Ki) of less than 500 nM.

In turn, `C[C@@H](CN1CCOCC1)n1c(=O)[nH]c2cc(/C=C3\c4ccccc4COc4cc(F)ccc43)ccc21` [Example 11] showed an inhibitory constant (Ki) of less than 500 nM.

The compound `O=c1[nH]c2cc(/C=C3\c4ccccc4COc4cc(F)ccc43)ccc2n1C1CCNCC1` [Example 12] showed a Ki of less than 1000 nM.

`C[C@@H]1CN(CCn2c(=O)[nH]c3cc(/C=C4\c5ccccc5COc5cc(F)ccc54)ccc32)C[C@H](C)O1` [Example 13]: the Ki was less than 500 nM.

In turn, `O=c1[nH]c2cc(/C=C3\c4ccccc4COc4cc(F)ccc43)ccc2n1CCN1CCNCC1` [Example 14] returned an inhibition constant (Ki) of less than 500 nM.

The compound `O=c1[nH]c2cc(/C=C3\c4ccccc4COc4cc(F)ccc43)ccc2n1C1CCNC1` (stereo not shown) [Example 15] came in with an inhibition constant (Ki) of less than 500 nM.

Regarding `O=c1[nH]c2cc(/C=C3\c4ccccc4COc4cc(F)ccc43)ccc2n1C1CCNC1` (stereo not shown) [Example 16], the Ki is less than 500 nM.

Regarding `O=c1[nH]c2cc(/C=C3\c4ccccc4COc4cc(F)ccc43)ccc2n1C1CNC1` [Example 17], the Ki was less than 500 nM.

Compound `O=c1[nH]c2cc(/C=C3\c4ccccc4COc4cc(F)ccc43)ccc2n1C[C@@H]1CCCN1` [Example 18] had an inhibition constant Ki of less than 1000 nM.

For `O=c1[nH]c2cc(/C=C3\c4ccccc4COc4cc(F)ccc43)ccc2n1C[C@H]1CCCN1` [Example 19], the inhibitory constant (Ki) was less than 1000 nM.

With `CN1CCN(CCn2c(=O)[nH]c3cc(/C=C4\c5ccc(F)cc5COc5cc(F)ccc54)ccc32)CC1` [Example 20], the inhibitory constant (Ki) is less than 500 nM.

As to `O=c1[nH]c2cc(/C=C3\c4ccc(F)cc4COc4cc(F)ccc43)ccc2n1CCN1CCCC1` [Example 21], the Ki is less than 500 nM.

`C[C@H](CN1CCOCC1)n1c(=O)[nH]c2cc(/C=C3\c4ccc(F)cc4COc4cc(F)ccc43)ccc21` [Example 22]: the inhibitory constant (Ki) was less than 500 nM.

In turn, `C[C@@H](CN1CCOCC1)n1c(=O)[nH]c2cc(/C=C3\c4ccc(F)cc4COc4cc(F)ccc43)ccc21` [Example 23] showed an inhibition constant (Ki) of less than 1000 nM.

Compound `CC(C)(CN1CCOCC1)n1c(=O)[nH]c2cc(/C=C3\c4ccc(F)cc4COc4cc(F)ccc43)ccc21` [Example 24] showed an inhibition constant Ki of less than 1000 nM.

In the case of `C[C@@H]1CN(CCn2c(=O)[nH]c3cc(/C=C4\c5ccc(F)cc5COc5cc(F)ccc54)ccc32)C[C@H](C)O1` [Example 25], the inhibition constant (Ki) was less than 500 nM.

As to `O=c1[nH]c2cc(/C=C3\c4ccc(F)cc4COc4cc(F)ccc43)ccc2n1CCCN1CCOCC1` [Example 26], the Ki was less than 500 nM.

Take `O=c1[nH]c2cc(/C=C3\c4ccc(F)cc4COc4cc(F)ccc43)ccc2n1C1CCNCC1` [Example 28]: the inhibitory constant (Ki) is less than 500 nM.

In turn, `O=c1[nH]c2cc(/C=C3\c4ccc(F)cc4COc4cc(F)ccc43)ccc2n1[C@H]1CCNC1` [Example 29] registered a Ki of less than 500 nM.

In turn, `O=c1[nH]c2cc(/C=C3\c4ccc(F)cc4COc4cc(F)ccc43)ccc2n1C1CNC1` [Example 30] yielded a Ki of less than 500 nM.

`O=c1[nH]c2cc(/C=C3\c4ccc(F)cc4COc4cc(F)ccc43)ccc2n1[C@@H]1CCNC1` [Example 31] showed a Ki of less than 500 nM.

Turning to `CN1CC[C@H](n2c(=O)[nH]c3cc(/C=C4\c5ccc(F)cc5COc5cc(F)ccc54)ccc32)C1` [Example 32], the Ki was less than 500 nM.

`CCN1CC[C@H](n2c(=O)[nH]c3cc(/C=C4\c5ccc(F)cc5COc5cc(F)ccc54)ccc32)C1` [Example 33]: the Ki was less than 500 nM.

On to `CN1CCN(CCn2c(=O)[nH]c3cc(/C=C4/c5ccc(F)cc5OCc5c(F)cccc54)ccc32)CC1` [Example 34], for which the inhibition constant Ki was less than 500 nM.

`O=c1[nH]c2cc(/C=C3/c4ccc(F)cc4OCc4c(F)cccc43)ccc2n1CCN1CCCC1` [Example 35] gave a Ki of less than 1000 nM.

`O=c1[nH]c2cc(/C=C3/c4ccc(F)cc4OCc4c(F)cccc43)ccc2n1C1CCNCC1` [Example 36] had a Ki of less than 500 nM.

As for `O=c1[nH]c2cc(/C=C3/c4ccc(F)cc4OCc4c(F)cccc43)ccc2n1[C@H]1CCNC1` [Example 37], the Ki is less than 500 nM.

`C[C@H](CN1CCOCC1)n1c(=O)[nH]c2cc(/C=C3/c4ccc(F)cc4OCc4c(F)cccc43)ccc21` [Example 38] registered an inhibition constant Ki of less than 500 nM.

Take `C[C@@H](CN1CCOCC1)n1c(=O)[nH]c2cc(/C=C3/c4ccc(F)cc4OCc4c(F)cccc43)ccc21` [Example 39]: the Ki is less than 1000 nM.

As for `CC(C)(CN1CCOCC1)n1c(=O)[nH]c2cc(/C=C3/c4ccc(F)cc4OCc4c(F)cccc43)ccc21` [Example 40], the inhibitory constant (Ki) was less than 1000 nM.

For `C[C@@H]1CN(CCn2c(=O)[nH]c3cc(/C=C4/c5ccc(F)cc5OCc5c(F)cccc54)ccc32)C[C@H](C)O1` [Example 41], the inhibition constant Ki is less than 500 nM.

Regarding `O=c1[nH]c2cc(/C=C3/c4ccc(F)cc4OCc4c(F)cccc43)ccc2n1CCCN1CCOCC1` [Example 42], the inhibition constant Ki was less than 500 nM.

`O=c1[nH]c2cc(/C=C3/c4ccc(F)cc4OCc4c(F)cccc43)ccc2n1CCN1CCNCC1` [Example 43] showed a Ki of less than 500 nM.

The compound `CCN1CC[C@H](n2c(=O)[nH]c3cc(/C=C4/c5ccc(F)cc5OCc5c(F)cccc54)ccc32)C1` [Example 44] yielded a Ki of less than 1000 nM.

`CN1CC[C@H](n2c(=O)[nH]c3cc(/C=C4/c5ccc(F)cc5OCc5c(F)cccc54)ccc32)C1` [Example 45] had a Ki of less than 10000 nM.

Source of the values: patent US20070037788A1, “Tricyclic steroid hormone nuclear receptor modulators” (Eli Lilly and Company, priority 2003, published 2007).
